Source: US11235020B2, “Methods and compositions for inhibiting glyoxalase 1 (GLO1)” (priority 2013, dated 2022)
Where two headings read alike, the source gives them in different places.

Experiments:
[1] = tested on: anxiety-like behavior in B6 mice; test: Light-dark (LD) box test; format: in vivo, mouse; details: MG 50 mg/kg i.p.
Description: (§1) LD box test: Mice were placed in the light compartment, and activity was monitored for 4 minutes. The light compartment was illuminated to approximately 1,000 lux, and the dark compartment was illuminated to approximately 5 lux. Behavior was recorded and automatically scored by the Noldus Ethovision System.
as §1, with “Ten minutes post-injection, mice” for “Mice”, “three” for “4”

glycine receptors = test: Glycinergic currents in CGN; format: cell-based, rat; details: 10 μM MG
Text: Ligand-gated currents: Ligand-gated currents were studied in voltage-clamp mode by application of reagents to cells held at −50 mV. GABAergic and glycinergic currents were activated by application of GABA and glycine and antagonized by application of SR and strychnine, respectively (Kaneda 1995). Glutamatergic currents were activated by 1-glutamate and antagonized by CNQX and AP-5 (Wyllie 1994).

mice = test: Hypothermia (rectal temperature); format: in vivo, mouse; details: 300 mg/kg i.p., B6 mice
Description: Hypothermia: Thirty minutes post-injection, rectal temperature was measured with a digital thermometer.

[2] = tested on: depression-like behavior in mice; test: Tail suspension test (TST); format: in vivo, mouse; details: MG 50 mg/kg i.p., acute, 10 min before test, B6 mice
Description: Mice were suspended by their tails using adhesive tape attached to a bar elevated approximately 46 cm above a table. The apparatus was illuminated to approximately 1,000 lux. Mice were tested individually, and time spent immobile was scored manually for six minutes. For MG studies, mice were treated with vehicle (0.9% saline) or crude MG (Sigma-Aldrich, 50 mg/kg) by i.p. injection ten minutes before the test. Behavior was scored for five minutes.

[3] = tested on: GABAA receptors in cerebellar granule neurons; test: Whole-cell patch clamp in cerebellar granule neurons (CGN); format: cell-based, rat
Description: Reagents: All reagents were obtained from Sigma-Aldrich.
Culture of rat CGN: CGN were cultured from mixed-sex Sprague-Dawley rats. Tissue was dissected from 6- to 8-day-old rats. Cells were suspended in minimal essential medium supplemented with 10% fetal calf serum, 26 mM glucose, 19 mM KCl, 2 mM 1-glutamine, and penicillin/streptomycin (50 IU/ml and 50 μg/ml). Cells were seeded on poly-1-lysine-coated coverslips and incubated in a humidified atmosphere containing 5% CO2 at 37° C. After 48 hours, the culture medium was replaced with minimal essential medium supplemented with 10% horse serum, 26 mM glucose, 19 mM KCl, 2 mM 1-glutamine, penicillin/streptomycin (50 IU/ml and 50 μg/ml), and 80 μM 1-fluorodeoxyuridine. Culture medium was exchanged every three days. All recordings were made from cells between days 6 to 9 in culture.
Filter and sampling frequencies were 5 and 25 kHz, respectively, for voltage-clamp experiments and 1 and 10 kHz, respectively, for current-clamp recording. Experiments were performed at 32° C. using a feedback-controlled heated perfusion system (Warner Instruments). Vm, ligand-gated currents, and potassium channel currents were studied in a bath solution containing 1 mM CaCl2, 1 mM MgCl2, 4 mM KCl, 140 mM NaCl, 5 mM glucose, and 10 mM HEPES (pH 7.4). […] Electrodes were coated with Sigmacote (Sigma) prior to use.
Ligand-gated currents: Ligand-gated currents were studied in voltage-clamp mode by application of reagents to cells held at −50 mV.

GABAB receptors = target: T1, GABAB receptors (Rattus norvegicus, UniProt Q9Z0U4); test: GABAB receptor activation (IKIR) in CGN; format: cell-based; details: 10 μM MG in the presence of SR
T1 construct: endogenous in cells; host or cells: primary rat cerebellar granule neurons
Text: Potassium currents: Voltage-gated potassium channel currents were evoked using a previously reported protocol with modifications (Plant 2006). The whole voltage-gated potassium current, IK+, and the delayed rectifier current, IDR were isolated with two voltage protocols. First, IK+ was evoked by 250 ms test pulses to between −80 and 90 mV from −80 mV following a 250 ms pre-pulse to −140 mV. Then, the protocol was repeated using a −50 mV pre-pulse to inactivate IK+ and isolate IDR. The inactivating component of the current, IKA, was isolated by subtracting IDR from IK+ recorded in the same cells. The standing outward potassium leak current, IKso, and the inwardly rectifying potassium current, IKIR, were studied as previously reported with modifications (Plant 2002). Cells were held at −20 mV, and the membrane potential was ramped to −120 mV over a period of 100 ms before returning to −20 mV. Ramp hyperpolarizations were repeated every 20 seconds.

[4] = tested on: pilocarpine-induced seizures; test: Pilocarpine-induced seizures; format: in vivo, mouse
Description: Drug administration: All experiments with MG utilized crude MG obtained from Sigma-Aldrich. For pre-treatment, MG (50 or 200 mg/kg) or vehicle (0.9% saline) was administered by i.p. injection 10 minutes before the seizure-inducing agent. For treatment after seizure onset, MG (200 mg/kg) or vehicle (0.9% saline) was administered by i.p. injection ten minutes after seizure onset. For GLO1 inhibition, BrBzGCp2 (50 mg/kg) or vehicle (8% DMSO and 18% Tween-80) was administered by i.p. injection two hours before seizure induction.
Seizure induction: For picrotoxin-induced seizures, 5 mg/kg of picrotoxin in 0.9% saline was administered by i.p. injection. Seizures were scored for one hour after picrotoxin administration. For pilocarpine-induced seizures, mice were pre-treated with atropine (5 mg/kg in 0.9% saline) by i.p. injection in order to reduce the peripheral effects of pilocarpine. Thirty minutes after atropine administration, pilocarpine was administered by i.p. injection. B6 mice were treated with 250 mg/kg pilocarpine in 0.9% saline, and FVB mice (WT and Tg) were treated with 300 mg/kg pilocarpine in 0.9% saline. Seizures were scored for 90 minutes after pilocarpine administration.
Pilocarpine-induced seizures were scored as previously reported (Winawer 2011):
Stage 1: Immobility/Lying Low
Stage 2: Partial (limbic) seizures. Non-continuous twitching/tremor/shaking of tail/head/body/limbs, forelimb and/or tail extension, rigid posture, repetitive movements, head bobbing
Stage 3: Partial status epilepticus. Continuous tremor/clonic seizures of body and tail while retaining posture
Stage 4: Generalized seizures. Rearing/hyperexcitability/running/falling, tonic extension/clonic seizures with loss of posture
Stage 5: Generalized status epilepticus (continuous stage 4 seizures) resulting in death

[5] = MG 50 and 200 mg/kg pre-treatment, pilocarpine 250 mg/kg, B6 mice

T1 sequence (Q9Z0U4 17-960 limits assumed): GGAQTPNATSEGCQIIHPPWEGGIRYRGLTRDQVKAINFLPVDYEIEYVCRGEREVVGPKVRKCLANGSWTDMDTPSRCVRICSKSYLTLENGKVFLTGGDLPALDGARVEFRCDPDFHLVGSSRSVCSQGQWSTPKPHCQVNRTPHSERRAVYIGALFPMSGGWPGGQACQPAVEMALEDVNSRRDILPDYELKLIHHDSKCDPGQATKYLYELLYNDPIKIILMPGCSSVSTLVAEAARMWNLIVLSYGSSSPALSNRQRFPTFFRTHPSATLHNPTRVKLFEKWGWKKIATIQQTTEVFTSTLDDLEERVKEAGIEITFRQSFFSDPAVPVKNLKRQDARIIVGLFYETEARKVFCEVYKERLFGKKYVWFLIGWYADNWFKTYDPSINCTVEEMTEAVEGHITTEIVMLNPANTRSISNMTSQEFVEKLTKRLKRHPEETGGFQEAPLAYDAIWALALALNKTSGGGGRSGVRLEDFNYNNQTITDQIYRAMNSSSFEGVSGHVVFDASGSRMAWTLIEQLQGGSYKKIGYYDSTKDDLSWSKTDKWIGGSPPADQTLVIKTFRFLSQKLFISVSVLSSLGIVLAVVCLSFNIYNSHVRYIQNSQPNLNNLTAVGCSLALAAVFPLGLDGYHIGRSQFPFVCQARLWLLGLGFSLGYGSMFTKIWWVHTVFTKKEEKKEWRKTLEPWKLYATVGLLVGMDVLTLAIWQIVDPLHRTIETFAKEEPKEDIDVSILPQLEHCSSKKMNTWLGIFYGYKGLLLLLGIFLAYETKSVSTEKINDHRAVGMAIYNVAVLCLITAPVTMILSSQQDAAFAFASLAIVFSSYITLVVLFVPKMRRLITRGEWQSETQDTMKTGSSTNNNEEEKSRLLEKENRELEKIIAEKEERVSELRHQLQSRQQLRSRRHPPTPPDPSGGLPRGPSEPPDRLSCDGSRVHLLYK
T1 sequence (O88871 41-940 partner): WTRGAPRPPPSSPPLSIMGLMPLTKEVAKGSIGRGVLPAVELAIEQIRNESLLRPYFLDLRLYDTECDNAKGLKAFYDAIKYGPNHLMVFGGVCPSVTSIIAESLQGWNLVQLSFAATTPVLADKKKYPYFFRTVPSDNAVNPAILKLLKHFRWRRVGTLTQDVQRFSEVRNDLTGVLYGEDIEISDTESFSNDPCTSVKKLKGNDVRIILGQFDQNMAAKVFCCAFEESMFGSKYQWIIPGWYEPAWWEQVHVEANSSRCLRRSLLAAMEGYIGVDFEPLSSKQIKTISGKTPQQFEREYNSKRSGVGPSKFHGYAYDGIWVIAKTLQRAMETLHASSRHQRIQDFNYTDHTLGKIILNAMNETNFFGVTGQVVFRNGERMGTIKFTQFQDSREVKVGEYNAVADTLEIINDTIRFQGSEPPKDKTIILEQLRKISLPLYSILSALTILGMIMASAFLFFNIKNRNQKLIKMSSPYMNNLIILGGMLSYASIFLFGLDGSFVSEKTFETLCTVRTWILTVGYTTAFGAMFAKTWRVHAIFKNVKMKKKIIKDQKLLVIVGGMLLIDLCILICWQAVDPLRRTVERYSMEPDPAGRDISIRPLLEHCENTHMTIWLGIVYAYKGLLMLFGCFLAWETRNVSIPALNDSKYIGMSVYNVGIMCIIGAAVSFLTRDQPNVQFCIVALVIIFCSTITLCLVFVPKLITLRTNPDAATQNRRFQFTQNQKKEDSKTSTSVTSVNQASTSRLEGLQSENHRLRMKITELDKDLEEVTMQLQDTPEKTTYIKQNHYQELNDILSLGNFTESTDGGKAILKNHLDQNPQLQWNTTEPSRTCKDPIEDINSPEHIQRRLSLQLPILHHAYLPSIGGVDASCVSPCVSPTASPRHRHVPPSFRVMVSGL

`CC(=O)C=O` [MG, methylglyoxal] was tested, and the “number of transitions between compartments” value [1] was “without affecting the number of transitions”, the “time spent in the light compartment” value ([1]; 10 min post-injection) was “increased time spent in the light compartment” and the “activation of glycine receptors” value (glycine receptors) was “did not activate”. For the same molecule, the hypothermia (mice) was “hypothermia”, the “duration of immobility in the TST” value [2] was “did not affect the duration of immobility” and the EC50 ([3]; read-out: EC50 of evoked inward currents in CGN, whole-cell voltage clamp) was 12 ± 0.7 µM. The EC50 ([3]; whole-cell current clamp, read-out: EC50 of depolarization of CGN) was 10.5 ± 0.5 µM, the “activation of GABAB receptors” value (GABAB receptors) was “did not activate GABAB receptors” and the “seizure duration, treatment of ongoing seizures” value ([4]; MG 200 mg/kg given 10 min after pilocarpine 250 mg/kg) was “reduced seizure duration in mice undergoing pilocarpine-induced seizures”. For the same molecule, the “highest seizure stage reached” value [4, 5] was “reduced seizure stage”, the “latency to reach stage 3 (seizure onset)” value [4, 5] was “dose-dependently delayed seizure onset” and the “time spent in stage 3 (seizure duration)” value [4, 5] was “reduced seizure duration”.
